Results from patent publication US20060183901A1, “Crystalline form of an indazole-carboxamide compound” (THERAVANCE, INC., priority 2005, published 2006).

Columns and labels:
[1] = biological target: T1, hERG cardiac potassium channel (Homo sapiens, UniProt Q12809); assay: In vitro voltage clamp assay of inhibition of potassium ion current in whole cells expressing hERG; format: cell-based; conditions: pH 7.4, 5 minutes exposure, CHO-K1 cells
T1 construct: host or cells: CHO-K1
Procedure: Assay 4: In Vitro Voltage Clamp Assay of Inhibition of Potassium Ion Current in Whole Cells Expressing the hERG Cardiac Potassium Channel
CHO-K1 cells stably transfected with hERG cDNA were obtained from Gail Robertson at the University of Wisconsin. Cells were held in cryogenic storage until needed. Cells were expanded and passaged in Dulbecco's Modified Eagles Medium/F 12 supplemented with 10% fetal bovine serum and 200 μg/mL geneticin. Cells were seeded onto poly-D-lysine (100 μg/mL) coated glass coverslips, in 35 mm^2 dishes (containing 2 mL medium) at a density that enabled isolated cells to be selected for whole cell voltage-clamp studies. The dishes were maintained in a humidified, 5% CO2 environment at 37° C.
Extracellular solution was prepared at least every 7 days and stored at 4° C. when not in use. […]
The coverslips on which the cells were seeded were transferred to a recording chamber and perfused continuously. […] Peak current amplitudes during the repolarization phase were determined using pClamp software. […]
Peak current amplitudes during the repolarization phase were determined using pCLAMP software. […] The normalized current means and standard errors for each condition were calculated and plotted versus the time course of the experiment. […]

[2] = Pharmacokinetic study in the rat; conditions: in vivo
Procedure: Assay 6: Pharmacokinetic Study in the Rat
Aqueous solution formulations of test compounds were prepared in 0.1% lactic acid at a pH of between about 5 and about 6. Male Sprague-Dawley rats (CD strain, Charles River Laboratories, Wilmington, Mass.) were dosed with test compounds via intravenous administration (IV) at a dose of 2.5 mg/kg or by oral gavage (PO) at a dose of 5 mg/kg. The dosing volume was 1 mL/kg for IV and 2 mL/kg for PO administration. Serial blood samples were collected from animals pre-dose, and at 2 (IV only), 5, 15, and 30 min, and at 1, 2, 4, 8, and 24 hours post-dose. Concentrations of test compounds in blood plasma were determined by liquid chromatography-mass spectrometry analysis (LC-MS/MS) (MDS SCIEX, API 4000, Applied Biosystems, Foster City, Calif.) with a lower limit of quantitation of 1 ng/mL.
Standard pharmacokinetic parameters were assessed by non-compartmental analysis (Model 201 for IV and Model 200 for PO) using WinNonlin (Version 4.0.1, Pharsight, Mountain View, Calif.). The maximum in the curve of test compound concentration in blood plasma vs. time is denoted Cmax. The area under the concentration vs. time curve from the time of dosing to the last measurable concentration (AUC(0-t)) was calculated by the linear trapezoidal rule. Oral bioavailability (F(%)), i.e. the dose-normalized ratio of AUC(0-t) for PO administration to AUC(0-t) for IV administration, was calculated as: F(%)=AUCPO/AUCIV×DoseIV/DosePO×100%

[3] = male Sprague-Dawley rats, PO 5 mg/kg, blood plasma

T1 sequence (Q12809 whole entry): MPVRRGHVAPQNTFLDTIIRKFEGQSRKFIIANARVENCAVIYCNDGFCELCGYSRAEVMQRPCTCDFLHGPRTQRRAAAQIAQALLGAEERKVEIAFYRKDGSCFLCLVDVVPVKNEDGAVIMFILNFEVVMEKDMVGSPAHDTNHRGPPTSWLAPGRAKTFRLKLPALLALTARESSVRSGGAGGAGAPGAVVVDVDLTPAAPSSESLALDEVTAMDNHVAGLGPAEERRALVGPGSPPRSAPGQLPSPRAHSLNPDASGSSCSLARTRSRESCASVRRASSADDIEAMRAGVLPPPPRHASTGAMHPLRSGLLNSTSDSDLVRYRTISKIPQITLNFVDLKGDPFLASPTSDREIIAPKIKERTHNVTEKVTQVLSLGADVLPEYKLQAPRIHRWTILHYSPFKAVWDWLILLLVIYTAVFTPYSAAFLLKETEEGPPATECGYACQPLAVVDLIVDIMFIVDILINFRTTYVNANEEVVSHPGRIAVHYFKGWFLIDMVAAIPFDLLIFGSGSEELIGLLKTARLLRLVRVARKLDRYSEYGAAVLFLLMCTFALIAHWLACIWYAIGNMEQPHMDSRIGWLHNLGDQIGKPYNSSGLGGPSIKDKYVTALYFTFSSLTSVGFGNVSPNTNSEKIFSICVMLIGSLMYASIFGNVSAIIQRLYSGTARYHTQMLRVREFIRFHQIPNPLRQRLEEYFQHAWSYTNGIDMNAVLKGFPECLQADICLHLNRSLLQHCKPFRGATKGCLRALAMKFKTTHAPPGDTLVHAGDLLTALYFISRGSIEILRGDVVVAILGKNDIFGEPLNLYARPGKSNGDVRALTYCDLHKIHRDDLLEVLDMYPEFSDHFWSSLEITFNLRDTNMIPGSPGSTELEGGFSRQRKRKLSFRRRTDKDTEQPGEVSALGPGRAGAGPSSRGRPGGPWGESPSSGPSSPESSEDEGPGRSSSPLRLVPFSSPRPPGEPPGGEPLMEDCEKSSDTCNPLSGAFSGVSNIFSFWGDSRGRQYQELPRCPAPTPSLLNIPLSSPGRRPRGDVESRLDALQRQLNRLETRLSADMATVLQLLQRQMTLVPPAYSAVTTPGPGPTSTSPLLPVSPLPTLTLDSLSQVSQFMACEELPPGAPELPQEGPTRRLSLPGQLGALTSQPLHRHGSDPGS

CC(=O)N1CCN(CCN2C3CCC2CC(NC(=O)c2nn(C(C)C)c4ccccc24)C3)CC1 [compound of formula I, 1-isopropyl-1H-indazole-3-carboxylic acid {(1S,3R,5R)-8-[2-(4-acetylpiperazin-1-yl)ethyl]-8-azabicyclo[3.2.1]oct-3-yl}amide]
inhibition at 5 min, 3 µM [1]: < 15% | AUC(0-t) [2, 3]: 730 ng·h/mL | Cmax [2, 3]: 250 ng/mL | bioavailability ([2]; male, Sprague-Dawley, PO 5 mg/kg vs IV 2.5 mg/kg, read-out: oral bioavailability (F(%))): ~100%
